Measurements reported in PubChem BioAssay (NCI).
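A five-concentration, 48-hour dose response in 96-well plates underlies each endpoint, interpolated linearly between surrounding concentrations. TGI: concentration producing complete growth inhibition.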

Columns and labels:
Assay in all cases: growth of human tumour cells (NCI), 48 h
[1] = tested on: CAKI-1 renal
[2] = tested on: CCRF-CEM leukemia
[3] = tested on: DLD-1 colon
[4] = tested on: HCC-2998 colon
[5] = tested on: HCT-116 colon
[6] = tested on: HCT-15 colon
[7] = tested on: K-562 leukemia
[8] = tested on: KM12 colon
[9] = tested on: LXFL 529 NSCLC
[10] = tested on: MOLT-4 leukemia
[11] = tested on: NCI-H522 lung
[12] = tested on: OVCAR-8 ovarian
[13] = tested on: RXF 393 renal
[14] = tested on: SF-268 CNS
[15] = tested on: SK-MEL-28 melanoma
[16] = tested on: SR leukemia
[17] = tested on: UO-31 renal
[18] = tested on: NCI-H460 lung
[19] = tested on: SNB-75 CNS
[20] = tested on: UACC-257 melanoma

Measured: TGI

N#CCCN(CCC#N)c1ccc(/C=C(/NC(=O)Nc2ccccc2Cl)NC(=O)c2cc([N+](=O)[O-])ccc2Cl)cc1
not listed: [18] | [19] | [20]
> 100 µM: all other assays above

Cn1c(=O)[nH]c2c(c1=O)C(=O)CN2
not listed: [11]
> 100 µM: all other assays above

CN(C(=O)c1ccccc1)c1ccc2c(c1)C(=O)c1ccccc1C2=O
not listed: [3] | [19]
> 100 µM: all other assays above

O=C(NCCN(CCNC(=O)c1cccc(=O)n1O)CCNC(=O)c1cccc(=O)n1O)c1cccc(=O)n1O
not listed: [3] | [5] | [9] | [10]
> 100 µM: all other assays above

COC(=O)C(=O)C(C(C)=O)C(=O)C(=O)Nc1ccc(C)cc1C (stereo not given)
> 100 µM: all assays above
